Common to all, as to assay: Example B2 herbicidal action, post-emergence, pots in glasshouse, evaluated after 13 days (10=total damage to plant; 0=no damage to plant)
Common to all, as to format: in vivo
Common to all, as to settings: rate 1000 g/ha

Assay [1] has as its system Amaranthus retroflexus. Here is the method:
(§1) Seeds of a variety of test species were sown in standard soil in pots. After 8 days cultivation (post-emergence) under controlled conditions in a glasshouse (at 24/16° C., day/night; 14 hours light; 65% humidity), the plants were sprayed with an aqueous spray solution derived from the formulation of the technical active ingredient in acetone/water (50:50) solution containing 0.5% Tween 20 (polyoxyethelyene sorbitan monolaurate, CAS RN 9005-64-5). The test plants were then grown in a glasshouse under controlled conditions in a glasshouse (at 24/16° C., day/night; 14 hours light; 65% humidity) and watered twice daily. After 13 days, the test was evaluated (10=total damage to plant; 0=no damage to plant).

In assay [2] the test system is Echinochloa crus-galli. The procedure:
as §1

Assay [3] concerns Ipomea hederaceae. The procedure:
as §1

Assay [4] relates to Setaria faberi. The procedure:
as §1

Assay [5] deals with Solanum nigrum. The procedure:
as §1

SMILES strings stand for the structures.

Turning to `O=c1c(-c2c(Cl)ccc(Cl)c2Cl)c(O)c2nccnc2n1CC(F)F` [B11, 5-(2,2-difluoro-ethyl)-8-hydroxy-7-(2,3,6-trichloro-phenyl)-5H-pyrido[2,3-b]pyrazin-6-one], in assay [1], the “AMARE damage score (10=total damage to plant; 0=no damage to plant)” value turned out to be 10. Also, the “ECHCG damage score (10=total damage to plant; 0=no damage to plant)” value in assay [2] was determined as 8. Besides, the “IPOHE damage score (10=total damage to plant; 0=no damage to plant)” value in assay [3] was 10. The “SETFA damage score (10=total damage to plant; 0=no damage to plant)” value in assay [4] turned out to be 9. Besides, the “SOLNI damage score (10=total damage to plant; 0=no damage to plant)” value in assay [5] is listed as 10.
For `O=C1c2nccnc2N(CC(F)(F)F)C(=O)C1c1c(F)ccc(F)c1Cl` (stereo not shown) [D1], the “AMARE damage score (10=total damage to plant; 0=no damage to plant)” value in assay [1] worked out at 10. For the same molecule, the “ECHCG damage score (10=total damage to plant; 0=no damage to plant)” value in assay [2] worked out at 5. Further, the “IPOHE damage score (10=total damage to plant; 0=no damage to plant)” value in assay [3] is 10. Also, the “SETFA damage score (10=total damage to plant; 0=no damage to plant)” value in assay [4] came to 6. For the same molecule, the “SOLNI damage score (10=total damage to plant; 0=no damage to plant)” value in assay [5] is listed as 10.
On to `CC(C)(C)C(=O)Oc1c(-c2cc(Cl)ccc2Cl)c(=O)n(CC(F)F)c2nccnc12` [A42], for which, in assay [1], the “AMARE damage score (10=total damage to plant; 0=no damage to plant)” value is 10. In addition, the “ECHCG damage score (10=total damage to plant; 0=no damage to plant)” value in assay [2] is given as 6. Further, the “IPOHE damage score (10=total damage to plant; 0=no damage to plant)” value in assay [3] is 9. Besides, the “SETFA damage score (10=total damage to plant; 0=no damage to plant)” value in assay [4] was 7. Besides, the “SOLNI damage score (10=total damage to plant; 0=no damage to plant)” value in assay [5] came out at 10.
Regarding `CC(C)(C)C(=O)Oc1c(-c2c(F)ccc(F)c2Cl)c(=O)n(CC=C(Cl)Cl)c2nccnc12` [C13], the “AMARE damage score (10=total damage to plant; 0=no damage to plant)” value in assay [1] came to 0. In addition, the “ECHCG damage score (10=total damage to plant; 0=no damage to plant)” value in assay [2] turned out to be 0. In addition, in assay [3], the “IPOHE damage score (10=total damage to plant; 0=no damage to plant)” value is given as 1. Also, the “SETFA damage score (10=total damage to plant; 0=no damage to plant)” value in assay [4] turned out to be 0. In addition, the “SOLNI damage score (10=total damage to plant; 0=no damage to plant)” value in assay [5] is listed as 3.
Consider `CC(C)(C)C(=O)Oc1c(-c2c(F)ccc(Cl)c2Cl)c(=O)n(CC(F)F)c2nccnc12` [A32], for which the “AMARE damage score (10=total damage to plant; 0=no damage to plant)” value in assay [1] was determined as 10. In assay [2], the “ECHCG damage score (10=total damage to plant; 0=no damage to plant)” value was 4. Further, the “IPOHE damage score (10=total damage to plant; 0=no damage to plant)” value in assay [3] was 9. The “SETFA damage score (10=total damage to plant; 0=no damage to plant)” value in assay [4] came out at 7. Further, in assay [5], the “SOLNI damage score (10=total damage to plant; 0=no damage to plant)” value was determined as 10.
As to `CC(C)C(=O)Oc1c(-c2c(F)ccc(F)c2Cl)c(=O)n(CC(F)(F)F)c2nccnc12` [C10], the “AMARE damage score (10=total damage to plant; 0=no damage to plant)” value in assay [1] is given as 10. Also, the “ECHCG damage score (10=total damage to plant; 0=no damage to plant)” value in assay [2] came out at 3. The “IPOHE damage score (10=total damage to plant; 0=no damage to plant)” value in assay [3] is on record as 10. Besides, the “SETFA damage score (10=total damage to plant; 0=no damage to plant)” value in assay [4] came to 6. Further, the “SOLNI damage score (10=total damage to plant; 0=no damage to plant)” value in assay [5] amounted to 10.
Regarding `CC(C)(C)C(=O)Oc1c(-c2c(Cl)cc(OC(F)(F)F)cc2Cl)c(=O)n(CC(F)F)c2nccnc12` [A11], the “AMARE damage score (10=total damage to plant; 0=no damage to plant)” value in assay [1] was 10. Also, in assay [2], the “ECHCG damage score (10=total damage to plant; 0=no damage to plant)” value is 9. For the same molecule, the “IPOHE damage score (10=total damage to plant; 0=no damage to plant)” value in assay [3] is recorded as 10. The “SETFA damage score (10=total damage to plant; 0=no damage to plant)” value in assay [4] was 9. Besides, in assay [5], the “SOLNI damage score (10=total damage to plant; 0=no damage to plant)” value was 10.
As to `CC(C)C(=O)Oc1c(-c2c(F)ccc(F)c2Cl)c(=O)n(CC=C(Cl)Cl)c2nccnc12` [C14], the “AMARE damage score (10=total damage to plant; 0=no damage to plant)” value in assay [1] was determined as 8. Further, the “ECHCG damage score (10=total damage to plant; 0=no damage to plant)” value in assay [2] was found to be 0. Moreover, the “IPOHE damage score (10=total damage to plant; 0=no damage to plant)” value in assay [3] was 1. For the same molecule, the “SETFA damage score (10=total damage to plant; 0=no damage to plant)” value in assay [4] is given as 0. For the same molecule, the “SOLNI damage score (10=total damage to plant; 0=no damage to plant)” value in assay [5] was found to be 8.
As to `CC(C)(C)C(=O)Oc1c(-c2cc(C(F)(F)F)ccc2C(F)(F)F)c(=O)n(CC(F)F)c2nccnc12` [A43], the “AMARE damage score (10=total damage to plant; 0=no damage to plant)” value in assay [1] stood at 10. For the same molecule, the “ECHCG damage score (10=total damage to plant; 0=no damage to plant)” value in assay [2] worked out at 8. Also, the “IPOHE damage score (10=total damage to plant; 0=no damage to plant)” value in assay [3] is 9. In assay [4], the “SETFA damage score (10=total damage to plant; 0=no damage to plant)” value is listed as 9. The “SOLNI damage score (10=total damage to plant; 0=no damage to plant)” value in assay [5] was found to be 9.
For `CC(C)C(=O)Oc1c(-c2cc(F)c(Cl)cc2Cl)c(=O)n(CC(F)F)c2nccnc12` [A20], in assay [1], the “AMARE damage score (10=total damage to plant; 0=no damage to plant)” value turned out to be 10. Also, in assay [2], the “ECHCG damage score (10=total damage to plant; 0=no damage to plant)” value is 7. Further, the “IPOHE damage score (10=total damage to plant; 0=no damage to plant)” value in assay [3] is 7. For the same molecule, the “SETFA damage score (10=total damage to plant; 0=no damage to plant)” value in assay [4] is 8. The “SOLNI damage score (10=total damage to plant; 0=no damage to plant)” value in assay [5] worked out at 9.
As to `CC(C)C(=O)Oc1c(-c2c(Cl)cccc2C(F)(F)F)c(=O)n(CC(F)F)c2nccnc12` [A41], the “AMARE damage score (10=total damage to plant; 0=no damage to plant)” value in assay [1] turned out to be 10. For the same molecule, the “ECHCG damage score (10=total damage to plant; 0=no damage to plant)” value in assay [2] is 8. Moreover, in assay [3], the “IPOHE damage score (10=total damage to plant; 0=no damage to plant)” value was determined as 9. Further, the “SETFA damage score (10=total damage to plant; 0=no damage to plant)” value in assay [4] is recorded as 9. In addition, in assay [5], the “SOLNI damage score (10=total damage to plant; 0=no damage to plant)” value is listed as 10.

Values taken from patent US8217055B2, “Pyrido-pyrazine derivatives useful as herbicidal compounds” (Syngenta Crop Protection LLC, priority 2006, dated 2012).
